Measured values as given in patent US12421216B2, “Voruciclib polymorphs and methods of making and using thereof” (MEI PHARMA, INC., priority 2019, dated 2025).
Converted amounts (≈) assume the structure as drawn. “Also recorded” adds a separate entry of the source. Like-named read-outs stand apart in the source and are kept apart here.

Key:
Type in all cases: physicochemical
[1] = Thermal stability of the free base in solution (HPLC); conditions: for Area (HPLC): 1 h
[2] = Solubility of salts in water and in 0.2 M phosphate buffer pH 6 at 37° C. after 4 hours (HPLC-DAD); conditions: 37° C., 4 hours, listed as Voruciclib Free base
Summary of the method: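 About 5 mg of salt received 200 μL aliquots of water or 0.2 M phosphate buffer pH 6, up to 1 mL, and was stirred at 37 °C for 4 h. After centrifugation and 0.2 […] PTFE filtration, dissolved concentration was determined by HPLC-DAD against voruciclib calibration, and final pH was recorded.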

[3] = Approximate solubility assessment of the free base by the solvent (aliquot) addition method; conditions: for Solubility in words / solubility: RT; for solubility: thermodynamic from solid
Method: The approximate solubility of the free base was assessed in several organic solvents (Table 17) by the solvent addition method. To about 5 mg of free base, aliquots of solvent were added until complete dissolution was observed or until a concentration […] was reached. Aliquots of 100 μL were used up to 2 mL, followed by aliquots of 1 mL up to 8 mL. […] Based on the solubility results, in some embodiments the crystallization solvents selected for salt formation were THF, ethanol and acetone.
The solubility assessment was performed according to the aliquot addition method and visually assessed. About 5 mg of free base was weighed into 8 mL glass vials. Aliquots of 100 μL were added up to 2 mL, followed by aliquots of 1 mL up to 8 mL. The experimental conditions are described in Table 21.

[4] = Qualitative solubility determination in water at room temperature, with observation of gel formation
Method: The aqueous solubility of Oxa2 (starting material) was assessed by the qualitative solubility determination approach. To 5.4 mg of Oxa2, water was added in steps of 50 μl until the material was dissolved (Exp. ID: SAS1). Visual inspection by the naked eye was used to decide whether complete dissolution occurred.
After the addition of 7.5 ml water, Oxa2 was not dissolved in water at room temperature. The suspension was heated to 50° C. upon which complete dissolution occurred, as indicated by a clear solution.
The aqueous solubility of Pho1 (Exp. ID: TCP23) was assessed by the qualitative solubility determination approach. To 5.6 mg of Pho1, water was added in steps of 50 μl until the material was dissolved (Exp. ID: SAS2). Visual inspection by the naked eye was used to decide whether complete dissolution occurred. After the addition of 700 μl water, Pho1 was not dissolved in water at room temperature whereas after a subsequent addition of 200 μl water (900 μl in total), the material completely dissolved.
The solubility of Mao1 in water was determined by adding small aliquots of water to the material until it was dissolved.

[5] = Physical stability of solid forms upon drying under vacuum, HT-XRPD
Method: (§1) Amorphous voruciclib oxalate salt, generated by freeze-drying, was used to start the thermocycling experiments. Suspensions were prepared in the selected solvent systems at RT. Subsequently, the mixtures were subjected to a temperature profile. After the temperature profile, the solids were separated from the solutions by centrifugation and were dried at ambient conditions and under deep vacuum before being harvested and analyzed by HT-XRPD. The liquid phases were also dried under deep vacuum before being harvested and analyzed by HT-XRPD. All solids were exposed to AAC (40° C./75% RH, 2 days).
(§2) After the temperature profile, the solids were separated from the liquids by centrifugation and the solid phase was dried at ambient conditions and under deep vacuum (5 mbar) before being harvested and analyzed by HT-XRPD. The liquid phases were dried under deep vacuum (5 mbar) and the recovered solids were analyzed by HT-XRPD. All solids were then exposed to accelerated aging conditions (40° C./75% RH, 2 days) followed by HT-XRPD re-analysis.
as §1, with “voruciclib phosphate” for “voruciclib oxalate”, “profile. Upon completion of” for “profile. After”, “dried under” for “dried at”
as §2, with “dried under” for “dried at”, “(5 mbar, 18 h)” for “(5 mbar)”
Amorphous voruciclib malonate salt, generated by freeze-drying, was used to start the thermocycling experiments. Suspensions were prepared in the selected solvent systems at RT and were subjected to three thermocycles between 50 and 5° C., followed by aging at 25° C. for 3 days. Upon completion of the aging time, the solids were separated from the liquids by centrifugation and they were dried at ambient conditions and under deep vacuum (5 mbar) before being harvested and analyzed by HT-XRPD.
After the temperature profile the solids were separated from the solution by centrifugation and they were dried at ambient conditions and under deep vacuum before being harvested and analyzed by HT-XRPD.

[6] = Physical stability upon exposure to accelerated aging conditions (AAC, 40° C./75% RH), re-analysis by HT-XRPD
[7] = Dynamic Vapor Sorption (DVS) hygroscopicity
Method: (§3) Differences in hygroscopicity (moisture uptake) of the various forms of a solid material provided a measure of their relative stability at increasing relative humidity. Moisture sorption isotherms of small samples were obtained using a DVS-1 system from Surface Measurement Systems (London, UK); this instrument is suitable for use with a few milligrams of sample, with an accuracy of 0.1 μg. The relative humidity was varied during sorption-desorption-sorption (45-95-0-45% RH) at a constant temperature of 25° C. Weight equilibration per step was set at dm/dt <0.0002 for a minimum of 1 hour or maximum of 6 hours. Afterwards the sample was measured by HT-XRPD.
The hygroscopicity was classified according to the European Pharmacopoeia Hygroscopicity classification.
as §3, with “(40-95-0-40%” for “(45-95-0-45%”
as §3, with “use with as little as a few” for “use with a few”
The hygroscopicity of Mao1 was determined by DVS. The powder was exposed to a RH profile consisting of sorption/desorption/sorption cycles (40-95-0-40% RH) performed at 25° C. The water vapor uptake gained during the sorption half-cycle was 0.75%.

CN1CC[C@@H](c2c(O)cc(O)c3c(=O)cc(-c4ccc(C(F)(F)F)cc4Cl)oc23)[C@@H]1CO [Voruciclib, (+)-trans-2-(2-chloro-4-trifluoromethylphenyl)-5,7-dihydroxy-8-(2-hydroxymethyl-1-methylpyrrolidin-3-yl)-chromen-4-one]
Area (HPLC) ([1]; Acetone solution, 25° C.): 1562.10 mAu*s
Area (HPLC) ([1]; Acetone solution, 50° C.): 1566.22 mAu*s
Area (HPLC) ([1]; Acetone solution, 80° C.): 1566.56 mAu*s
Area (HPLC) ([1]; Ethanol solution, 25° C.): 1633.32 mAu*s
Area (HPLC) ([1]; Ethanol solution, 50° C.): 1625.98 mAu*s
Area (HPLC) ([1]; Ethanol solution, 80° C.): 1625.83 mAu*s
Thermal stability in solution ([1]; THF, ethanol, acetone solutions, RT 24 h, 50° C. and 80° C. 1 h, HPLC purity): thermally stable in solution
Area (HPLC) ([1]; Tetrahydrofuran solution, 25° C.): 1697.99 mAu*s
Area (HPLC) ([1]; Tetrahydrofuran solution, 50° C.): 1713.96 mAu*s
Area (HPLC) ([1]; Tetrahydrofuran solution, 80° C.): 1701.15 mAu*s
Solubility pH 6 ([2]; 0.2M phosphate buffer (pH 6)): 0.01 mg/mL
Solubility water ([2]; water): <10 µg/mL
Solubility at RT ([3]; 1,4-Dioxane): ~1000 µg/mL (≈ 2.13 mM)
Solubility at RT ([3]; 2-Propanol): ~8000 µg/mL (≈ 17 mM)
Solubility at RT ([3]; Acetonitrile): ~5000 µg/mL (≈ 10.6 mM)
Solubility at RT ([3]; Chloroform): ~5000 µg/mL (≈ 10.6 mM)
Solubility at RT ([3]; Ethyl acetate): ~1000 µg/mL (≈ 2.13 mM)
Solubility in words ([3]; THF): soluble
Solubility at RT ([3]; Water): <1000 µg/mL
Solubility in words ([3]; methanol, ethanol and acetone): sparingly soluble
solubility ([3]; organic solvent or mixture, 1,4-Dioxane, approximate, solvent addition, read-out: Solubility): ~1000 µg/mL (≈ 2.13 mM)
solubility ([3]; organic solvent or mixture, 2-Propanol, approximate, solvent addition, read-out: Solubility): ~8000 µg/mL (≈ 17 mM)
solubility ([3]; organic solvent or mixture, Acetone, approximate, solvent addition, read-out: Solubility): 10000 to 13000 µg/mL (≈ 21.3 to 27.7 mM)
solubility ([3]; organic solvent or mixture, Acetonitrile, approximate, solvent addition, read-out: Solubility): ~5000 µg/mL (≈ 10.6 mM)
solubility ([3]; organic solvent or mixture, Chloroform, approximate, solvent addition, read-out: Solubility): ~5000 µg/mL (≈ 10.6 mM)
solubility ([3]; organic solvent or mixture, Ethanol, approximate, solvent addition, read-out: Solubility): 14000 to 18000 µg/mL (≈ 29.8 to 38.3 mM)
solubility ([3]; organic solvent or mixture, Ethyl acetate, approximate, solvent addition, read-out: Solubility): ~1000 µg/mL (≈ 2.13 mM)
solubility ([3]; organic solvent or mixture, Methanol, approximate, solvent addition, read-out: Solubility): 17000 to 26000 µg/mL (≈ 36.2 to 55.3 mM)
solubility ([3]; organic solvent or mixture, Tetrahydrofuran, approximate, solvent addition, read-out: Solubility): 30000 to 60000 µg/mL (≈ 63.9 to 128 mM)
solubility ([3]; organic solvent or mixture, solvents other than THF, methanol, ethanol, acetone, read-out: Solubility in other solvents): < 10000 µg/mL
solubility ([3]; Water, approximate, solvent addition, read-out: Solubility): < 1000 µg/mL
Solubility in words ([3]; water): practically insoluble

CN1CC[C@@H](c2c(O)cc(O)c3c(=O)cc(-c4ccc(C(F)(F)F)cc4Cl)oc23)[C@@H]1CO.O=C(O)C(=O)O [Oxa2]
Solubility classification in water ([4]; USP classification, room temperature): practically insoluble (solubility <0.1 mg/mL)
Solubility in water at room temperature ([4]; qualitative determination by adding aliquots of water, visual): < 100 µg/mL
Behaviour upon addition of water (gel formation) ([4]; small amount of water added to solid): No indication of gel-formation was observed
Solid forms Vacuum ([5]; oxalate salt thermocycling solids, form after drying under deep vacuum (5 mbar, 18 h), HT-XRPD, label = ambient-dried form): Oxa2
Physical stability upon drying under deep/high vacuum ([5]; oxalate, phosphate, malonate forms, 5 mbar, 18 h): stable under vacuum conditions; also recorded: physically stable
Physical stability upon exposure to AAC ([6]; 40° C./75% RH, 2 days, HT-XRPD before and after): stable when exposed to advanced aging conditions; also recorded: physically stable upon exposure to AAC
Solid forms Ambient AAC ([6]; oxalate salt thermocycling, ambient-dried solids after AAC (40° C./75% RH, 2 days), HT-XRPD): Oxa2
Solid forms ML AAC ([6]; oxalate salt thermocycling, solids from evaporated mother liquor after AAC (40° C./75% RH, 2 days), HT-XRPD): Oxa2
Solid forms Vacuum AAC ([6]; oxalate salt thermocycling, vacuum-dried solids after AAC (40° C./75% RH, 2 days), HT-XRPD): Oxa2
Water uptake ([7]; DVS, 25° C./80% RH): approximately 2.4%
Hygroscopicity classification ([7]; European Pharmacopoeia classification, water uptake at 25° C./80% RH): moderately hygroscopic
Solid form recovered after DVS analysis ([7]; XRPD after sorption-desorption-sorption cycle): Oxa2 was recovered
